According to US7432050B2, “Methods and compositions for detecting colon cancers” (Case Western Reserve University, priority 2001, dated 2008):
Entries after “also recorded” stand apart in the source; their conditions may differ.

Test system: HLTF expression
Assay: RT-PCR assay for HLTF expression reactivation after 5-azacytidine treatment
Assay type: cell-based, human
Method: The cultures were grown and treated as described previously (Veigl, et al., 1998, Proc. Natl. Acad. Sci. USA, 95:8698-8702). The optimal tolerated doses were determined for each treated line, and two doses were used for some lines, ranging from 1 μg/ml to 3 μg/ml.
To establish that methylation was responsible for silencing HLTF gene expression, cell lines with HLTF DNA methylation were treated with 5-azacytidine (5-azaC), a demethylating agent.

## Nc1ncn([C@@H]2O[C@H](CO)[C@@H](O)[C@H]2O)c(=O)n1 [5-azaC, 5-azacytidine]
Colon cancer cell lines with HLTF DNA methylation (RCA, V457, SW480, V5, V6, V432), 1 μg/ml to 3 μg/ml
  reactivation of HLTF expression: reactivates HLTF expression; also recorded: reactivated HLTF expression in all these cell lines
Control cell lines with constitutive HLTF expression and unmethylated HLTF DNA (V429, V503)
  change of HLTF expression in control cell lines: did not further increase HLTF expression
